SMILES strings stand for the structures. Where two headings read alike, the source gives them in different places.

These results are taken from PMC7754465, “Multiparameter Kinetic Analysis for Covalent Fragment Optimization by Using Quantitative Irreversible Tethering (qIT)” (Chembiochem, 2020).

This assay addresses T1, Cdk2(ES) = Cdk2(F80C,C177A) (Homo sapiens, UniProt P24941, C177A/F80C).
T1 construct: GST (N, cleaved yes); made in house; host or cells: E. coli Tuner(DE3)
Kind of assay: quantitative irreversible tethering (qIT): rate of cysteine modification of Cdk2(ES). Format: binding. The note with it: for rate enhancement factor (REF): rate with Cdk2(ES) relative to rate with GSH, thiol 5 μM. The protocol:
Figure 2 Comparison of previous and current applications of Quantitative irreversible tethering (qIT). a) Overview of rate determination. A cysteine‐containing biomolecule is treated with covalent fragments under pseudo‐first‐order conditions. Reaction progress is followed by discrete measurement of free cysteine concentration by using the fluorogenic probe CPM, and rate constants (k obs) are derived from exponential regression analysis. b) Comparison of the reactivity profile of each fragment with the POI and GSH typically classes them as unreactive, reactive but non‐selective or reactive and selective. c) Quantification of kinetic POI/GSH selectivity facilitates hit identification. d) The observed rate of reaction between the POI and hit fragment is determined at a range of ligand concentrations by using qIT. Subsequent hyperbolic regression analysis is used to derive K i and k inact to facilitate comprehensive covSAR analysis.
Therefore, we set out to develop novel classes of electrophile sensitive kinase inhibitors using a covalent fragment approach. Accordingly, we screened a 138‐member library of diverse cysteine‐reactive fragments at 500 μM against Cdk2(ES) and GSH by using the qIT platform and monitored the kinetics of cysteine‐modification over 24 hours. […] Using three standard deviations over the geometric mean REF as the statistical cut‐off for defining hit fragments (REF >27.9) yielded two acrylamide fragments, tetrahydroquinoline 1 (REF=81) and pyrimidine S1 (REF=64) for further investigation (Figures 3c and S2). […]
D. Rate determination by qIT
Reaction-plate setup: Each well of a 96-well PCR plate was charged with 60–100 µL of target thiol (GSH or protein, 10 µM) and 4% w/v TCEP-agarose beads in 100 mM phosphate buffer (pH 7.5 or 8) and cooled to 4 °C. Reactions were started by addition of an equal volume of pre-cooled electrophile solution (1 mM, 2% DMSO) in 0.1 M phosphate buffer (final concentra-tion: thiol = 5 µM, electrophile = 0.5 mM, 2% w/v TCEP-agarose beads), with a minimum of 4 wells per plate used as DMSO/thiol only controls. After mixing, TCEP-agarose was pelleted by centrifugation (1,300 rpm, 1 min) and the plate incu-bated at 4 °C. CPM Quench: At a series of time points (typically around 0.25, 0.5, 1, 2, 6, 24, 48, 72 and 120 hours after reac-tion initiation), 3 µL aliquots of each reaction were quenched into a 384-well fluorescence plate (Corning – black, NBS) where each well was charged with 27 µL of CPM solution (1.39 µM) in 100 mM phosphate buffer (pH 7.5) (final concentration: thiol = 0.5 µM, CPM = 1.25 µM). Quenching was typically performed in duplicate and fluorescence plates were incubated at room temperature for 60 minutes before fluorescence intensity (excitation/emission: 384/470 nm) was measured on an EnVisionTM plate reader. Analysis: All analysis was performed using Prism 8.0 software (GraphPad). For each time point, the fluorescence of each reaction was normalized relative Cdk2(ES)/GSH only control = maximum signal, DMSO only = minimum signal. The normalized fluorescence for each reaction was plotted against time. A one phase exponential decay was fitted to each plot (Constraints: Y(0) > 0.8; 0 < plateau = 0), yielding a pseudo first-order rate constant.
Cdk2 mutations were introduced by PCR and cloned into pGEX6P1 Cdk2 (552), a gift from Jonathon Pines (Addgene plasmid # 61845) used to express GST-Cdk2(WT). GST-Cdk2(ES) = GST-Cdk2(F80C,C177A). All constructs were verified by se-quencing. pGEX6P1 cyclin A2 (amino acids 173-432) was generated by PCR and restriction digestion. GST-CAK1 was con-structed by PCR amplification of S.cerevisiae genomic DNA and the product cloned into pKEG-KG. All protein expression was performed using an adapted autoinduction protocol:[8] Plasmids were transformed into E. coli Tuner(DE3) and cultures grown in autoinduction media at 37 °C until OD600 = 0.9. The cultures were then incubated at 18 °C for a further 40 hours before […]

Setting [1] is: fragment 0.5 mM, Cdk2(ES) 5 μM, read-out: Cdk2(ES): kobs/[I].

`C=CC(=O)N1CCN(CC)c2ccccc21` [compound 6]: the kinact/KI at 500 µM runs as follows: (Cdk2(ES) (5 μM) + 6 (500 μM), Figure 6c, read-out: kobs/[I] with Cdk2(ES)) 0.105 M⁻¹ s⁻¹; under setting [1], 0.1 M⁻¹ s⁻¹. Besides, the “covalent SAR by REF-based qIT analysis” value (compared with acrylamide 1 or parent analogue) was “maintained a similar REF”. For the same compound, the “rate of reaction with Cdk2(ES) relative to acrylamide 1” value (qIT) was “ten times more slowly than acrylamide 1”.

For the compound `C=CC(=O)Nc1ccc(-c2ncccn2)cc1` [S1], the “rate enhancement factor (REF)” value (fragment 0.5 mM) is listed as 64.

Consider `C=CC(=O)N1CCCc2cc(C(=O)OC)ccc21` [compound 1], for which the kinact/KI at 500 µM under setting [1] worked out at 1.31 M⁻¹ s⁻¹. Moreover, the “rate enhancement factor (REF)” value (fragment 0.5 mM) was 81.
